{"source": "paper PMC11272821", "about": "“Mechanistic safety assessment via multi-omic characterisation of systemic pathway perturbations following in vivo MAT2A inhibition” (Archives of Toxicology, 2024)", "tested_on": "rat liver proteome", "assay": "Liver label-free quantitative proteomics", "type": "in vivo", "settings": "for differentially expressed liver proteins vs vehicle control: adjusted p < 0.05 and Log2 FC > 0.5 or < −0.5", "procedure": "Liver tissue were homogenized in PreOmics iST buffer (PreOmics) using a bead ruptor. […] Peptides were purified using PreOmics iST cartridges and vacuum-centrifuged to dryness. Peptides were subsequently reconstituted in 2 vol% ACN and 0.1 vol% formic acid for single-run LC–MS analysis. Peptides were analyzed using a Thermo EASY-nLC1200 coupled online to an Exploris 480 Mass Spectrometer equipped with a Nanospray Flex Ion Source integrated with a column oven (PRSO-V1, Sonation) and a FAIMS unit. Peptides were separated using a nonlinear gradient and analyzed by acquiring spectra through Data Independent Acquisition (DIA). Data was analyzed using Spectronaut V15.7.2 (Biognosys AG) direct DIA analysis using an isoform Rat database (UniProt downloaded 22.02.2021) consisting of 9,746 protein entries utilizing the Pulsar search engine. Analysis settings were maintained to factory settings and identification was set to 1% false discovery rate (FDR) for precursor and protein level. Additional information is provided in Supplementary M&M.\nData analysis was performed using R Statistical Software (version 4.3.0). Proteomics, transcriptomics and metabolomics expression changes were visualised using heatmaps showing log2 fold change relative to control. In the heatmaps missing values were highlighted in grey.\nProteomics Analysis. Liver tissue was placed in vials containing 1.4 mm zirconia beads and taken up in 500 µL of PreOmics iST buffer (PreOmics). In a cold room set to 4 °C, tissues were homogenized utilizing a bead Ruptor 12 by shaking for 30 seconds for a total of 5 times using ‘high’ setting. Lysate was normalized using BCA assay (Thermo Fisher Scientific), and subsequently incubated at 95 °C for 10 min for reduction, and alkylation of proteins. A total of 50 μg from each sample was subjected to enzymatic cleavage for 3 h by adding equal amounts of endoproteinase Lys-C and trypsin (ThermoFisher Scientific, # A40009) in a 1:50 (wt/wt) enzyme:protein ratio. De-salting and purification were performed according to the PreOmics iST protocol on a styrene divinylbenzene reversed-phase sulfonate sorbent. Purified peptides were vacuum-centrifuged to dryness and reconstituted in double-distilled water with 2 vol% ACN and 0.1 vol% formic acid (FA) for single-run LC-MS analysis.\nPeptides were loaded onto a ReproSil-Pur 120 C18AQ 1.9 µm in-house packed to a 5 µm tip 75u ID × 360u × 50 cm column using Thermo EASY-nLC 1200 coupled online to an Exploris 480 Mass Spectrometer equipped with a Nanospray Flex Ion Source integrated with a column oven (PRSO-V1, Sonation) maintained at 50 °C. Peptides were separated using a nonlinear gradient: Mobile phase A was 0.1 vol% FA and 3 vol% acetonitrile (ACN) in water, Mobile phase B was 90 vol% ACN and 0.1 vol % FA. The gradient was operated at 250 nL/min flowing 3 vol% B for 3 min, 3 to 5 vol% B over 3 min, 5 to 17 vol % B over 120 min, 17 to 24 vol % B over 26 min, 24 to 30 vol% B over 14 min, 30 to 85 vol% B over 3 min."}
{"smiles": "Cn1cc2cc(-c3cc4[nH]nc(C5CC5)c4n(-c4ccc(OC(F)F)cc4)c3=O)ccc2n1", "note": "[AZ’9567]", "values": [{"measurement": "differentially expressed liver proteins vs vehicle control", "setting": "3 mg/kg BID", "result": "around 357"}, {"measurement": "differentially expressed liver proteins vs vehicle control", "setting": "highest dose (30 mg/kg BID)", "result": 519}, {"measurement": "A2m Log2FC", "setting": "liver protein, 3mg/kg", "result": 1.7}, {"measurement": "Abcb1 Log2FC", "setting": "liver protein, 3mg/kg", "result": 1.4}, {"measurement": "Abhd1 Log2FC", "setting": "liver protein, 3mg/kg", "result": -1.8}, {"measurement": "Acaca Log2FC", "setting": "liver protein, 3mg/kg", "result": -1}, {"measurement": "Acbd4 Log2FC", "setting": "liver protein, 3mg/kg", "result": -0.7}, {"measurement": "Acly Log2FC", "setting": "liver protein, 3mg/kg", "result": -1.1}, {"measurement": "Acsl1 Log2FC", "setting": "liver protein, 3mg/kg", "result": -0.7}, {"measurement": "Acsl3 Log2FC", "setting": "liver protein, 3mg/kg", "result": -0.8}, {"measurement": "Acsm2 Log2FC", "setting": "liver protein, 3mg/kg", "result": 1.4}, {"measurement": "Akap5 Log2FC", "setting": "liver protein, 3mg/kg", "result": -1.0}, {"measurement": "Aldh1a1 Log2FC", "setting": "liver protein, 3mg/kg", "result": 1.7}, {"measurement": "Aldh1a7 Log2FC", "setting": "liver protein, 3mg/kg", "result": 1.5}, {"measurement": "Aldh16a1 Log2FC", "setting": "liver protein, 3mg/kg", "result": -0.6}, {"measurement": "Alpl Log2FC", "setting": "liver protein, 3mg/kg", "result": 1.8}, {"measurement": "Als2 Log2FC", "setting": "liver protein, 3mg/kg", "result": -1.1}, {"measurement": "Anpep Log2FC", "setting": "liver protein, 3mg/kg", "result": 0.8}, {"measurement": "Aox1 Log2FC", "setting": "liver protein, 3mg/kg", "result": -0.6}, {"measurement": "Apeh Log2FC", "setting": "liver protein, 3mg/kg", "result": -0.7}, {"measurement": "Apoc1 Log2FC", "setting": "liver protein, 3mg/kg", "result": -1.2}, {"measurement": "Aqp8 Log2FC", "setting": "liver protein, 3mg/kg", "result": 0.8}, {"measurement": "Asns Log2FC", "setting": "liver protein, 3mg/kg", "result": 1.6}, {"measurement": "Baat Log2FC", "setting": "liver protein, 3mg/kg", "result": -0.8}, {"measurement": "Banf1 Log2FC", "setting": "liver protein, 3mg/kg", "result": 0.8}, {"measurement": "Bhmt2 Log2FC", "setting": "liver protein, 3mg/kg", "result": 1.2}, {"measurement": "Bhmt Log2FC", "setting": "liver protein, 3mg/kg", "result": 1.7}, {"measurement": "Brix1 Log2FC", "setting": "liver protein, 3mg/kg", "result": 0.7}, {"measurement": "Ca5a Log2FC", "setting": "liver protein, 3mg/kg", "result": 1.1}, {"measurement": "Carnmt1 Log2FC", "setting": "liver protein, 3mg/kg", "result": -1.4}, {"measurement": "Cbs Log2FC", "setting": "liver protein, 3mg/kg", "result": -2.9}, {"measurement": "Ccnd1 Log2FC", "setting": "liver protein, 3mg/kg", "result": 12.4}, {"measurement": "Cdh1 Log2FC", "setting": "liver protein, 3mg/kg", "result": 0.7}, {"measurement": "Cdo1 Log2FC", "setting": "liver protein, 3mg/kg", "result": -3.9}, {"measurement": "Ces2c Log2FC", "setting": "liver protein, 3mg/kg", "result": 1.4}, {"measurement": "Cfdp1 Log2FC", "setting": "liver protein, 3mg/kg", "result": 0.5}, {"measurement": "Chid1 Log2FC", "setting": "liver protein, 3mg/kg", "result": 0.9}, {"measurement": "Comt Log2FC", "setting": "liver protein, 3mg/kg", "result": -0.5}, {"measurement": "Coq4 Log2FC", "setting": "liver protein, 3mg/kg", "result": 1.0}, {"measurement": "Csad Log2FC", "setting": "liver protein, 3mg/kg", "result": -0.7}, {"measurement": "Ctbs Log2FC", "setting": "liver protein, 3mg/kg", "result": -0.6}, {"measurement": "Cyp2c23 Log2FC", "setting": "liver protein, 3mg/kg", "result": -0.6}, {"measurement": "Cyp4a2 Log2FC", "setting": "liver protein, 3mg/kg", "result": 1.4}, {"measurement": "Cyp4a10 Log2FC", "setting": "liver protein, 3mg/kg", "result": 1.7}, {"measurement": "Dbnl Log2FC", "setting": "liver protein, 3mg/kg", "result": 0.6}, {"measurement": "Dcakd Log2FC", "setting": "liver protein, 3mg/kg", "result": 1.0}, {"measurement": "Dkc1 Log2FC", "setting": "liver protein, 3mg/kg", "result": 0.6}, {"measurement": "Dmgdh Log2FC", "setting": "liver protein, 3mg/kg", "result": 1}, {"measurement": "Dohh Log2FC", "setting": "liver protein, 3mg/kg", "result": 0.8}, {"measurement": "Eif4ebp1 Log2FC", "setting": "liver protein, 3mg/kg", "result": 1.1}, {"measurement": "Enpep Log2FC", "setting": "liver protein, 3mg/kg", "result": -0.8}, {"measurement": "Fabp5 Log2FC", "setting": "liver protein, 3mg/kg", "result": -0.7}, {"measurement": "Fads1 Log2FC", "setting": "liver protein, 3mg/kg", "result": -1.3}, {"measurement": "Fasn Log2FC", "setting": "liver protein, 3mg/kg", "result": -0.7}, {"measurement": "Fdft1 Log2FC", "setting": "liver protein, 3mg/kg", "result": 0.9}, {"measurement": "Fdps Log2FC", "setting": "liver protein, 3mg/kg", "result": 0.5}, {"measurement": "Fgr Log2FC", "setting": "liver protein, 3mg/kg", "result": 1.5}, {"measurement": "Gimd1 Log2FC", "setting": "liver protein, 3mg/kg", "result": -0.7}, {"measurement": "Gmpr Log2FC", "setting": "liver protein, 3mg/kg", "result": 0.8}, {"measurement": "Gnl3 Log2FC", "setting": "liver protein, 3mg/kg", "result": 1.0}, {"measurement": "Gnmt Log2FC", "setting": "liver protein, 3mg/kg", "result": 1.6}, {"measurement": "Gpcpd1 Log2FC", "setting": "liver protein, 3mg/kg", "result": 1.2}, {"measurement": "Gstm1 Log2FC", "setting": "liver protein, 3mg/kg", "result": -0.8}, {"measurement": "Gstm2 Log2FC", "setting": "liver protein, 3mg/kg", "result": -0.8}, {"measurement": "Gtpbp4 Log2FC", "setting": "liver protein, 3mg/kg", "result": 0.7}, {"measurement": "Hexa Log2FC", "setting": "liver protein, 3mg/kg", "result": -0.6}, {"measurement": "Hfe Log2FC", "setting": "liver protein, 3mg/kg", "result": 1.1}, {"measurement": "Hmgcs1 Log2FC", "setting": "liver protein, 3mg/kg", "result": 1.3}, {"measurement": "Hmgn2 Log2FC", "setting": "liver protein, 3mg/kg", "result": 1.0}, {"measurement": "Hnrnpa1 Log2FC", "setting": "liver protein, 3mg/kg", "result": 1.1}, {"measurement": "Hsd17b7 Log2FC", "setting": "liver protein, 3mg/kg", "result": 0.6}, {"measurement": "Idi1 Log2FC", "setting": "liver protein, 3mg/kg", "result": 0.9}, {"measurement": "Igf1 Log2FC", "setting": "liver protein, 3mg/kg", "result": -1.4}, {"measurement": "Kalrn Log2FC", "setting": "liver protein, 3mg/kg", "result": 0.7}, {"measurement": "Lipa Log2FC", "setting": "liver protein, 3mg/kg", "result": -0.8}, {"measurement": "Lrrc8d Log2FC", "setting": "liver protein, 3mg/kg", "result": 0.9}, {"measurement": "Lyrm2 Log2FC", "setting": "liver protein, 3mg/kg", "result": 0.8}, {"measurement": "Mat1a Log2FC", "setting": "liver protein, 3mg/kg", "result": 0.9}, {"measurement": "Mat2a Log2FC", "setting": "liver protein, 3mg/kg", "result": 0.8}, {"measurement": "Mat2b Log2FC", "setting": "liver protein, 3mg/kg", "result": -1.9}, {"measurement": "Me1 Log2FC", "setting": "liver protein, 3mg/kg", "result": -1}, {"measurement": "Mettl7b Log2FC", "setting": "liver protein, 3mg/kg", "result": -0.6}, {"measurement": "Mettl26 Log2FC", "setting": "liver protein, 3mg/kg", "result": -1.8}, {"measurement": "Minpp1 Log2FC", "setting": "liver protein, 3mg/kg", "result": 0.6}, {"measurement": "Mospd1 Log2FC", "setting": "liver protein, 3mg/kg", "result": -0.5}, {"measurement": "Mt1 Log2FC", "setting": "liver protein, 3mg/kg", "result": 6.2}, {"measurement": "Mtr Log2FC", "setting": "liver protein, 3mg/kg", "result": 1.1}, {"measurement": "Mybbp1a Log2FC", "setting": "liver protein, 3mg/kg", "result": 0.7}]}
